Data from US20180217128A1, “METHOD FOR MEASURING IN VIVO INHIBITION OF INTRACELLULAR RNASE” (NATIONAL INSTITUTE OF ADVANCED INDUSTRIAL SCIENCE AND …, priority 2015, published 2018).

Experiments:
[1] = system: intracellular ribonuclease in HEK 293 cells; assay: Evaluation of harmfulness to cells using fluorescently labeled double-stranded RNA (intracellular RNA degradation, FRET fluorescence); conditions: Mercury II Chrolide 100 ng/ml
Description: That is, the present inventors designed and prepared a double-stranded RNA comprising an RNA strand labeled with a fluorescent dye A that emits fluorescence, and an RNA strand labeled with a fluorescent dye B that quenches emission from a fluorescent dye in the vicinity thereof. When the double-stranded RNA is in a double-stranded state, the fluorescence is in a quenched state due to occurrence of fluorescence resonance energy transfer (FRET) (Non-patent Document 4) between the two kinds of fluorescent dyes.
[…] After mixing, each reaction liquid was incubated at room temperature for 20 minutes, and then added to HEK 293 cells (2×10^5 cells/ml in 96 well plate), which are human cells. From Hour 0 to Hour 8, fluorescence was measured at 519 nm with excitation at 488 nm using a Microplate Reader SH-9000 (Corona Electric) at one-hour intervals. The experiment was carried out for n=3.
The result obtained by dividing the fluorescence values at Hours 1 to 8 by the fluorescence value at Hour 0 is shown in FIG. 5.
As reaction liquids, systems each containing 50 μL of Opti-MEM (Life Technologies), 1 μL of Lipofectamine 2000 (Life Technologies), 200 nM double-stranded RNA (the same RNA as in Example 1), and 0 ng/ml, 1 ng/ml, 100 ng/ml, or 100 μg/ml Cisplatin (Wako) were provided. […]

[2] = biological target: T1, Ribonuclease (DNase free) Solution (ribonuclease; RNase) (Bos taurus, UniProt P61823); conditions: 100 μM hydrogen peroxide
T1 sequence (P61823 27-150): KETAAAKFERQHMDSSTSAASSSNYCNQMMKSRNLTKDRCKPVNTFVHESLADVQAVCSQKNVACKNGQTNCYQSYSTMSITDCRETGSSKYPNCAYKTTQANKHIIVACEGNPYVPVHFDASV
Method: In this experiment, how hydrogen peroxide influences the fluorescently labeled double-stranded RNA and a Ribonuclease (DNase free) Solution (ribonuclease; RNase) (Nippon Gene) was investigated.
A reaction liquid containing 200 nM double-stranded RNA in Opti-MEM (Life Technologies) (50 μL) was provided, and fluorescence was measured at 519 nm with excitation at 488 nm using a Microplate Reader SH-9000 (Corona Electric) (the result at Hour 0). Thereafter, systems in each of which hydrogen peroxide was added at 0 or 100 μM, and Ribonuclease (DNase free) Solution (ribonuclease; RNase) (Nippon Gene) was added at 0 or 0.4 mg/ml, were provided, and each system was incubated at room temperature for 1, 2, or 4 hours, followed by measurement of fluorescence at 519 nm with excitation at 488 nm using a Microplate Reader SH-9000 (the result at Hour 1, 2, or 4). The experiment was carried out for n=3.
The result obtained by dividing the fluorescence value at Hour 1, 2, or 4 by the fluorescence value at Hour 0 is shown in FIG. 4.

HEK 293 cells = conditions: hydrogen peroxide 0.01, 1 or 100 μM, measured at Hour 2, 4, 6, 8, n=3
Method: The viable cell count was determined by the absorbance using a Cell Counting Kit-8 (Dojindo).
The cell systems at Hour 2, 4, 6, and 8 were subjected to measurement of the absorbance at 450 nm using a Cell Counting Kit-8 (Dojindo) and a Microplate Reader SH-9000 (Corona Electric) to determine the viable cell count. The experiment was carried out for n=3.

[3] = biological target: T1, Ribonuclease (DNase free) Solution (ribonuclease; RNase); assay: Degradation of the fluorescently labeled double-stranded RNA (FRET probe) by ribonuclease, cell-free; assay type: biochemical; design: purchased Nippon Gene; conditions: 200 nM double-stranded RNA in Opti-MEM, 0.4 mg/ml RNase, room temperature 1 hour, vs no RNase, n=3
Description: First, FRET-Alexa-RNA: 5′-(Alexa Flour 488)-[…]-3′ (SEQ ID NO: 1) as a reporter strand, and FRET-BHQ1-RNA: (5′-[…]-(BHQ1)-3′ (SEQ ID NO:2) as a quencher strand were provided. The base at the 5′ end of the reporter strand is labeled with Alexa Flour 488 through a C6 linker, and the base at the 3′ end of the quencher strand is labeled with BHQ1 (Black Hole Quencher 1) without use of a linker (FIG. 2).
The reporter strand and the quencher strand were mixed at a ratio of 1:2 (molar ratio) in a solution of 50 mM HEPES, 500 mM KCl, and 25 mM MgCl2, and the resulting solution was incubated at 99° C. for 5 minutes, at 65° C. for 30 minutes, and then at 25° C. for 30 minutes to prepare a double-stranded RNA.
The experiment was carried out for n=3.

## [Cl][Hg][Cl] [Mercury II Chrolide]
[1]; 10 μg/ml or 1 mg/ml
  concentration dependence of the suppression of the fluorescence increase: dependent on the Mercury II Chrolide concentration
[1]; 10 μg/ml or 1 mg/ml vs 0 ng/ml, Hour 0 to 8, n=3
  increase in the fluorescence value with time (Hours 1 to 8 divided by Hour 0): suppressed

## OO [hydrogen peroxide]
[2]; 200 nM double-stranded RNA, 0.4 mg/ml RNase, room temperature, n=3
  fluorescence value (Hour 1, 2 or 4 divided by Hour 0) of system with RNase, compared with RNase system: almost the same
[2]; 200 nM double-stranded RNA, no RNase, room temperature, n=3
  fluorescence value (Hour 1, 2 or 4 divided by Hour 0) of system without RNase, vs system with neither RNase nor hydrogen peroxide: almost the same
[2]; cell-free, 1-4 hours
  influence on fluorescence value of the RNA FRET Probe and on RNase activity (cell-free): influences neither the fluorescence value of the RNA FRET Probe nor the RNase activity
HEK 293 cells
  time at which a decrease in the absorbance (relative to 0 μM taken as 1) was first found: 8 h

## fluorescently labeled double-stranded RNA: Double-stranded RNA of FRET-Alexa-RNA reporter strand (SEQ ID NO: 1, Alexa Flour 488) and FRET-BHQ1-RNA quencher strand (SEQ ID NO: 2) (sense CAUAAUCCACCUCCCACUAUUCC; antisense GGAAUAGUGGGAGGUGGAUUAUG; RNA, backbone not given here; Alexa Fluor 488 on reporter, BHQ1 on quencher)
[3]
  fluorescence intensity (fluorescence value at Hour 1 divided by value at Hour 0) on addition of RNase: obviously increased
